The values below come from patent US20050233435A1, “Plasmodium axenic liver stages as a noninfectious whole organism malaria vaccine” (priority 2003, published 2005).

In general, inhibition refers to how much of the control response was suppressed.

The subject of the assay is P. berghei sporozoites. Description: Host cell-free transformation of sporozoites into EEFs (liver stages). To be noted: Plasmodium berghei; lactacystin 10 μM in the culture medium. In kind it is cell-based. The method, then: Transformation medium and quantification of transformation: Sporozoites were suspended in DMEM medium (BioWhittaker) containing 2 mM of L-glutamine, 4.5 g/l glucose and supplemented with 10% Fetal Bovine Serum (FBS; HyClone) and 500 U/ml penicillin/streptomycin and 1.25 μl/ml fungizon (Sigma). For the generation of Plasmodium axenic liver stages, 5×10^4 sporozoites were inoculated per well of a 8 well chamber slide (Labtek) and maintained at 37° C. in 5% CO2. Initially, slides were coated with Matrigel (Becton Dickinson) at density of 100 μg/cm^2 to improve the development. Matrigel improved attachment of the parasites to the slide, but was not essential for transformation.
To determine transformation rates for various conditions and slides, the host cell-free cultures of GFP-expressing P. berghei sporozoites were examined by fluorescence microscopy at 400× magnification using an Eclipse TE 300 fluorescence microscope (Nikon, Inc.) using a green filter (excitation wavelength 495 nm/emission wavelength 519 nm). EEFs were scored as completely transformed only when they appeared completely spherical with no sporozoite remnants visible. Each count was performed in triplicate on three independent experiments done with sporozoites isolated from different batches of infected mosquitoes.

SMILES strings stand for the structures.

For the compound `CC(=O)N[C@@H](CSC(=O)[C@]1([C@@H](O)C(C)C)NC(=O)[C@H](C)[C@@H]1O)C(=O)O` [lactacystin], the inhibition at 10 µM was roughly 70%.
